Values quoted from earlier work, collected in patent US8193226B2, “Candesartan cilexetil” (Zhejiang Huahai Pharmaceutical Co., Ltd., priority 2007, dated 2012).
Read-outs that look alike come from different tables or passages of the source.

What was measured:
[1] = not given; remark: listed apart in the source
[2] = not given; remark: listed apart in the source

stability when processed into a tablet (in the presence of other pharmaceutically acceptable additives, or at granulation or tableting): tends to decompose
stability of the drug as such (isolated form, exposed to increased temperatures, humidity and light): stable
solubility in alcoholic solvents ([1]; alcoholic solvents): readily soluble
solubility in water ([1]; water): practically insoluble
bioavailability ([2]; solution): 40%
bioavailability ([2]; tablet): 15%
SMILES: CCOc1nc2cccc(C(=O)OC(C)OC(=O)OC3CCCCC3)c2n1Cc1ccc(-c2ccccc2-c2nn[nH]n2)cc1 (stereo not drawn) [candesartan cilexetil]
